# Where two headings read alike, the source gives them in different places.
# Assays:
# [1] = test system: Fusobacterium necrophorum 6054A; assay: Susceptibility of anaerobic bacterial isolates (MIC), agar-dilution; type: cell-based
# [2] = test system: Clostridium septicum 1128; assay: as above; type: cell-based; settings: 24-hour incubation
# Experimental: The A80915 antibiotics also are active against anaerobic bacteria. […] End points were read after 24-hour incubation.
# [3] = test system: Bacteriodes vulgatis 1211; assay: as above; type: cell-based
# Trichomonas vaginalis = assay: Anti-protozoan activity (MIC); type: cell-based
# [4] = test system: Bacteriodes fragilis 1936B; assay: Susceptibility of anaerobic bacterial isolates (MIC), agar-dilution; type: cell-based
# [5] = test system: Eubacterium aerofaciens 1235; assay: as above; type: cell-based; settings: Collinsella aerofaciens; Eubacterium aerofaciens 1235; agar-dilution, 24-hour incubation; read-out: MIC
# [6] = test system: Fusobacterium symbiosum 1470; assay: as above; type: cell-based
# [7] = test system: Staphylococcus epidermis 222; type: cell-based
# Experimental: (§1) The A80915 antibiotics inhibit the growth of bacteria which are pathogenic to animal life. […] The MIC's in Table III were determined by conventional agar-dilution assays.
# Streptococcus sp. = type: cell-based; settings: Veterinary organism Streptococcus sp.; agar-dilution
# Experimental: as §1
# [8] = test system: Streptococcus pyogenes C203; type: cell-based
# Experimental: as §1
# Escherichia coli = type: cell-based; settings: Veterinary organism Escherichia coli; agar-dilution
# Experimental: as §1
# Pasteurella hemolytica = type: cell-based; settings: Veterinary organism Pasteurella hemolytica; agar-dilution
# Experimental: as §1
# Salmonella typhimurium = type: cell-based; settings: Salmonella enterica; Veterinary organism Salmonella typhimurium; agar-dilution
# Experimental: as §1
# [9] = test system: Bordetella bronchiseptica; type: cell-based; settings: Veterinary organism Bordetella bronchiseptica; agar-dilution
# Experimental: as §1
# Mycoplasma hyopneumoniae = type: cell-based; settings: Mesomycoplasma hyopneumoniae; Veterinary organism Mycoplasma hyopneumoniae; agar-dilution
# Experimental: as §1
# [10] = test system: Staphylococcus aureus X1.1; type: cell-based
# Experimental: as §1
# [11] = test system: Staphylococcus epidermis EPI1; type: cell-based
# Experimental: as §1
# [12] = test system: Streptococcus faecium X66; type: cell-based; settings: Enterococcus faecium
# Experimental: as §1
# Gram-negative = type: cell-based; settings: agar-dilution
# Experimental: as §1
# Staphylococcus sp. = type: cell-based; settings: Veterinary organism Staphylococcus sp.; agar-dilution
# Experimental: as §1
# [13] = test system: Staphylococcus aureus V41; type: cell-based
# Experimental: as §1
# [14] = test system: Streptococcus faecium 2041; type: cell-based; settings: Enterococcus faecium
# Experimental: as §1
# Pasteurella multocida = type: cell-based; settings: Veterinary organism Pasteurella multocida; agar-dilution
# Experimental: as §1
# [15] = test system: Streptococcus pneumoniae Park1; type: cell-based
# Experimental: as §1
# [16] = test system: Staphylococcus aureus X400; type: cell-based
# Experimental: as §1
# Mycoplasma gallisepticum = type: cell-based; settings: Mycoplasmoides gallisepticum; Veterinary organism Mycoplasma gallisepticum; agar-dilution
# Experimental: as §1
# [17] = Acute toxicity in mice, intraperitoneal injection; settings: mouse, in vivo, ip
# Excerpt: The acute toxicity of the A80915 antibiotics in mice, when administered by intraperitoneal injection and expressed as LD50, is shown in Table V.
# [18] = test system: Peptococcus asaccharolyticus 1302; assay: Susceptibility of anaerobic bacterial isolates (MIC), agar-dilution; type: cell-based
# [19] = test system: Clostridium perfringens 81; assay: microbe, parasite or virus in culture; type: cell-based; settings: Clostridium perfringens, 81, 24 h
# Bacteriodes fragilis 111 = assay: Susceptibility of anaerobic bacterial isolates (MIC), agar-dilution; type: cell-based
# Peptococcus prevoti 1281 = assay: as above; type: cell-based
# [20] = test system: Bacteriodes fragilis 1877; assay: as above; type: cell-based
# Trichomonas foetus = assay: Anti-protozoan activity (MIC); type: cell-based; settings: Tritrichomonas foetus
# Candida albicans = assay: Anti-fungal activity (MIC); type: cell-based
# [21] = test system: Bacteriodes thetaiotaomicron 1438; assay: Susceptibility of anaerobic bacterial isolates (MIC), agar-dilution; type: cell-based
# [22] = test system: Peptostreptococcus intermedius 1264; assay: as above; type: cell-based
# [23] = test system: Peptostreptococcus anaerobius 1428; assay: as above; type: cell-based
# [24] = test system: Bacteriodes corrodens 1874; assay: as above; type: cell-based
# [25] = test system: Bacteriodes melaninogenicus 1856/28; assay: as above; type: cell-based; settings: Bacteriodes melaninogenicus 1856/28; agar-dilution, 24-hour incubation; read-out: MIC
# [26] = test system: Clostridium difficile 2994; assay: as above; type: cell-based; settings: Clostridioides difficile; Clostridium difficile 2994; agar-dilution, 24-hour incubation; read-out: MIC
# [27] = test system: Propionibacterium acnes 79; assay: as above; type: cell-based
# [28] = test system: Bacteriodes melaninogenicus 2736; assay: as above; type: cell-based
# [29] = Spontaneous loss of nitrogen on standing in solvent; type: physicochemical; settings: standing at room temperature in a solvent such as methanol, ethanol or water
# Excerpt: Loss of nitrogen is accelerated by, for example, heating or the addition of salts or mild reducing agents such as sodium hyposulfite, and the like.
# [30] = Staphylococcus epidermis 222, agar-dilution, read-out: MIC
# [31] = Streptococcus pyogenes C203, agar-dilution, read-out: MIC
# [32] = Staphylococcus aureus X1.1, agar-dilution, read-out: MIC
# [33] = Staphylococcus epidermis EPI1, agar-dilution, read-out: MIC
# [34] = Streptococcus faecium X66, agar-dilution, read-out: MIC
# [35] = Staphylococcus aureus V41, agar-dilution, read-out: MIC
# [36] = Streptococcus faecium 2041, agar-dilution, read-out: MIC
# [37] = Streptococcus pneumoniae Park1, agar-dilution, read-out: MIC
# [38] = Staphylococcus aureus X400, agar-dilution, read-out: MIC
smiles,measurement,setting,value
Cc1c(O)cc2c(c1O)C(=O)[C@@]1(Cl)C[C@@H](Cl)C(C)(C)O[C@@]1(C[C@H]1C(C)(C)[C@@H](Cl)CC[C@]1(C)O)C2=O [A80915C],MIC,"[1]; Fusobacterium necrophorum, 6054A, 24 h",> 128 mg/L
same,MIC,[2],8 mg/L
same,MIC,[3]; 24 h,> 128 mg/L
same,MIC,Trichomonas vaginalis,> 100 mg/L
same,MIC,[4]; 24 h,4 mg/L
same,MIC,[5],8 mg/L
same,MIC,"[6]; Fusobacterium, 1470, 24 h",> 128 mg/L
same,MIC,"[7]; Staphylococcus, 222",> 128 mg/L
same,MIC,Streptococcus sp.,3.12 mg/L
same,MIC,"[8]; Streptococcus pyogenes, C203",> 128 mg/L
same,MIC,Escherichia coli,> 50 mg/L
same,MIC,Pasteurella hemolytica,50 mg/L
same,MIC,Salmonella typhimurium,> 50 mg/L
same,MIC,[9],> 50 mg/L
same,MIC,Mycoplasma hyopneumoniae,> 50 mg/L
same,MIC,"[10]; Staphylococcus aureus, X1.1",> 128 mg/L
same,MIC,"[11]; Staphylococcus, EPI1",> 128 mg/L
same,MIC,[12]; X66,> 128 mg/L
same,MIC,Gram-negative,> 128 mg/L
same,MIC,Staphylococcus sp.,1.56 mg/L
same,MIC,"[13]; Staphylococcus aureus, V41",> 128 mg/L
same,MIC,[14]; 2041,> 128 mg/L
same,MIC,Pasteurella multocida,50 mg/L
same,MIC,"[15]; Streptococcus pneumoniae, PARK1",> 128 mg/L
same,MIC,"[16]; Staphylococcus aureus, X400",> 128 mg/L
same,MIC,Mycoplasma gallisepticum,25 mg/L
same,LD50,[17],> 300 mg/kg
same,MIC,"[18]; Peptoniphilus asaccharolyticus, Peptococcus asaccharolyticus 1302, agar-dilution, 24-hour incubation, read-out: MIC",2 mg/L
same,MIC,[19],8 mg/L
same,MIC,Bacteriodes fragilis 111; 24 h,128 mg/L
same,MIC,Peptococcus prevoti 1281; 24 h,2 mg/L
same,MIC,[20]; 24 h,4 mg/L
same,MIC,Trichomonas foetus,> 100 mg/L
same,MIC,Candida albicans,> 80 mg/L
same,MIC,[21]; 24 h,> 128 mg/L
same,MIC,"[22]; Peptostreptococcus, 1264, 24 h",128 mg/L
same,MIC,"[23]; Peptostreptococcus anaerobius, 1428, 24 h",4 mg/L
same,MIC,[24]; 24 h,> 128 mg/L
same,MIC,[25],64 mg/L
same,MIC,[26],8 mg/L
same,MIC,"[27]; Cutibacterium acnes, 79, 24 h",4 mg/L
same,MIC,[28]; 24 h,> 128 mg/L
Cc1c([O-])c([N+]#N)c2c(c1O)C(=O)[C@@]1(Cl)C[C@@H](Cl)C(C)(C)O[C@@]1(C[C@H]1C(C)(C)[C@@H](Cl)CC[C@]1(C)O)C2=O [A80915D],loss of nitrogen (stability),[29],spontaneously lose nitrogen
same,MIC,"[1]; Fusobacterium necrophorum 6054A, agar-dilution, 24-hour incubation, read-out: MIC",8 mg/L
same,MIC,[2],16 mg/L
same,MIC,"[3]; Bacteriodes vulgatis 1211, agar-dilution, 24-hour incubation, read-out: MIC",> 128 mg/L
same,MIC,Trichomonas vaginalis,25 mg/L
same,MIC,"[4]; Bacteriodes fragilis 1936B, agar-dilution, 24-hour incubation, read-out: MIC",8 mg/L
same,MIC,[5],16 mg/L
same,MIC,"[6]; Fusobacterium symbiosum 1470, agar-dilution, 24-hour incubation, read-out: MIC",> 128 mg/L
same,MIC,[7]; [30],1 mg/L
same,MIC,Streptococcus sp.,3.12 mg/L
same,MIC,[8]; [31],2 mg/L
same,MIC,Escherichia coli,> 50 mg/L
same,MIC,Pasteurella hemolytica,12.5 mg/L
same,MIC,Salmonella typhimurium,> 50 mg/L
same,MIC,[9],> 50 mg/L
same,MIC,Mycoplasma hyopneumoniae,25 mg/L
same,MIC,[10]; [32],1 mg/L
same,MIC,[11]; [33],2 mg/L
same,MIC,[12]; [34],32 mg/L
same,MIC,Gram-negative,> 128 mg/L
same,MIC,Staphylococcus sp.,0.2 mg/L
same,MIC,[13]; [35],2 mg/L
same,MIC,[14]; [36],32 mg/L
same,MIC,Pasteurella multocida,3.12 mg/L
same,MIC,[15]; [37],1 mg/L
same,MIC,[16]; [38],2 mg/L
same,MIC,Mycoplasma gallisepticum,> 50 mg/L
same,LD50,[17],11.8 mg/kg
same,MIC,"[18]; Peptoniphilus asaccharolyticus, 1302, 24 h",4 mg/L
same,MIC,[19],16 mg/L
same,MIC,"Bacteriodes fragilis 111; Bacteriodes fragilis 111, agar-dilution, 24-hour incubation, read-out: MIC",16 mg/L
same,MIC,"Peptococcus prevoti 1281; Peptococcus prevoti 1281, agar-dilution, 24-hour incubation, read-out: MIC",8 mg/L
same,MIC,"[20]; Bacteriodes fragilis 1877, agar-dilution, 24-hour incubation, read-out: MIC",16 mg/L
same,MIC,Trichomonas foetus,25 mg/L
same,MIC,Candida albicans,10 mg/L
same,MIC,"[21]; Bacteriodes thetaiotaomicron 1438, agar-dilution, 24-hour incubation, read-out: MIC",> 128 mg/L
same,MIC,"[22]; Peptostreptococcus intermedius 1264, agar-dilution, 24-hour incubation, read-out: MIC",128 mg/L
same,MIC,"[23]; Peptostreptococcus anaerobius 1428, agar-dilution, 24-hour incubation, read-out: MIC",8 mg/L
same,MIC,"[24]; Bacteriodes corrodens 1874, agar-dilution, 24-hour incubation, read-out: MIC",> 128 mg/L
same,MIC,[25],32 mg/L
same,MIC,[26],16 mg/L
same,MIC,"[27]; Cutibacterium acnes, Propionibacterium acnes 79, agar-dilution, 24-hour incubation, read-out: MIC",16 mg/L
same,MIC,"[28]; Bacteriodes melaninogenicus 2736, agar-dilution, 24-hour incubation, read-out: MIC",> 128 mg/L
C=C1CCC(Cl)C(C)(C)C1CC12OC(C)(C)C(Cl)C=C1C(=O)c1c(cc(O)c(C)c1O)C2=O (centres unmarked) [Compound 5],MIC,[7]; [30],4 mg/L
same,MIC,[8]; [31],4 mg/L
same,MIC,[10]; [32],4 mg/L
same,MIC,[11]; [33],4 mg/L
same,MIC,[12]; [34],8 mg/L
same,MIC,Gram-negative,> 128 mg/L
same,MIC,[13]; [35],4 mg/L
same,MIC,[14]; [36],8 mg/L
same,MIC,[15]; [37],4 mg/L
same,MIC,[16]; [38],4 mg/L
